The values below come from patent US12240844B2 (Voronoi, Inc., priority 2019, dated 2025).

The target in one assay is LRRK2 (G2019S) (Homo sapiens, UniProt Q5S007, G2019S). Nature of the assay: LRRK2 G2019S enzyme inhibition, ADP-Glo kinase assay. Format: biochemical. Further details: purchased SignalChem L10-12GG. Put shortly:
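Activity read as ADP-Glo luminescence, normalized to untreated solvent control, with IC50 (nM) fitted over 12 final compound levels (top 50 μM). Reaction: 2 h, 25° C, human LRRK2 G2019S 16 ng, ATP 25 μM, substrate 0.2 μg, in Tris-HCl pH 7.4 with MgCl2, BSA and DTT.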
A general note: In ADP-Glo the light output rises with the ADP produced.

A further assay relates to TNF-α. Kind of assay: TNF-α secretion inhibition in LPS-treated THP-1 cells (ELISA). The assay is classed as cell-based. Conditions: Homo sapiens, compound 0.5 μM, LPS 500 ng/ml, 24 hours, read-out: THP-1/TNF-a (% inhib). The procedure:
(§1) In order to evaluate the cytokine secretion inhibitory efficacy of mononuclear cells, THP-1 cells (ATCC, #TIB-202) as a human-derived monocyte cell line were cultured in RPMI-1640 (Hyclone, SH30027.01) media in which 10% fetal bovine serum (Hyclone, SH30084.03), 1% penicillin streptomycin (Welgene, LS202-02) and 50 μM 2-Mercaptoethanol (Gibco, #21985023) were contained. In the test, 1.5-2×10^5 cells/250 μl per each well were dispensed in a 48-well plate (SPL, #30048) and incubated in an incubator at 37° C. and 5% CO2 for 16 hours, and then the compounds were diluted in DMSO so that the final concentration was 0.5 μM. It was treated with Lipopolysaccharides (LPS) (sigma, #L6529) […]. After treatment with the compound, the LPS was treated so that the final concentration was 500 ng/ml, and then the cell culture fluid was collected after culturing for 24 hours, and the degrees of the cytokines IL-6 (R&D system, #D6050) and TNF-α (R&D system, #DTA00D) contained in the culture fluid were collected using each ELISA kit. After performing the experiment according to the manufacturer's instructions, the absorbance at 450 nm was measured and analyzed using a microplate reader.
A general note: In an ELISA, binding on a coated surface is turned into a signal by an enzyme label.

Another assay concerns IL-6. Nature of the assay: IL-6 secretion inhibition in LPS-treated THP-1 cells (ELISA). Conditions: Homo sapiens, compound 0.5 μM, LPS 500 ng/ml, 24 hours, read-out: THP1/IL6 (% inhib). The assay is classed as cell-based. Here is the method: as §1
Assay [1] deals with T1, human GST-DYRK1A (full length) (Homo sapiens, UniProt Q13627).
T1 construct: purified human GST-DYRK1A (full length, Thermo scientifics) enzyme; GST; purchased Thermo scientifics
Kind of assay: GST-DYRK1A enzyme inhibition, ADP-Glo kinase assay. Format: biochemical. Particulars: read-out: DYRK1 IC50. Put shortly: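 ADP-Glo luminescence quantified kinase activity after a 1 h, 25° C reaction of 10 ng full-length GST-tagged human DYRK1A, substrate and 10 uM ATP in Tris-HCl buffer pH 7.4 with MgCl2, BSA and DTT. Triplicate IC50 values (nM) calculated relative to untreated solvent control.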

The next assay has as its target LRRK2 (Homo sapiens, UniProt Q5S007). Nature of the assay: LRRK2 enzyme inhibition, ADP-Glo kinase assay. The assay is classed as biochemical. Further details: purchased Invitrogen PR8604B. A digest of the protocol:
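ADP-Glo luminescence read after 2 h at 25° C, 10 μM ATP, 25 ng purified human LRRK2 and […] substrate in Tris-HCl pH7.4 buffer with MgCl2, BSA, DTT. Twelve final concentrations, 50 μM down to 0.000001024 μM; IC50 (nM) from inhibition relative to untreated solvent control.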

The target in another assay is T2, human GST-CLK1 (129-end) (Homo sapiens, UniProt P49759).
T2 construct: purified human GST-CLK1 (129-end, Signalchem) enzyme; GST; purchased Signalchem
Nature of the assay: GST-CLK1 enzyme inhibition, ADP-Glo kinase assay. The assay is classed as biochemical. Conditions: ATP 10 uM. Put shortly:
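ADP formation was read by ADP-Glo luminescence after 1 h at 25° C with 3 ng human GST-CLK1 (129-end), substrate and 10 uM ATP in Tris pH 7.4 buffer containing MgCl2, BSA and DTT. Inhibition relative to untreated solvent control gave IC50 (nM), run in triplicate.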

In the next assay the test system is SHP-77. Nature of the assay: SHP-77 cancer cell proliferation inhibition (Cell Titer-Glo). Particulars: Homo sapiens, SHP77, SHP-77 small cell lung cancer cell line, 72 hours. The assay is classed as cell-based. Put shortly:
(§2)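 GI50 comes from CellTiter-Glo luminescence, read 10 min after reagent addition at RT, following 72 h compound treatment. Eleven concentrations were used (⅓ steps, highest 10 μM final) on 2000 cells/well. MDA-MB-231 and MDA-MB-468 were grown in DMEM, SHP-77 in RPMI.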

The subject of the next assay is MDA-MB-231 cell line. Kind of assay: MDA-MB-231 cancer cell proliferation inhibition (Cell Titer-Glo). Particulars: Homo sapiens, MDA-MB-231 triple-negative breast cancer cell line, 72 hours. Format: cell-based. A digest of the protocol:
as §2
(In general: In ATP-based viability assays light output follows the ATP content of the culture.)

The next assay has as its system human DYRK1A and Tau. Nature of the assay: Tau phosphorylation inhibition, ClariCELL Kinase Cell-Based Assay (Carnabio). A digest of the protocol:
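HEK293 cells transiently expressing human DYRK1A and Tau were exposed to compound, then lysed. Released Tau was captured on plate and its phosphorylation quantified by ELISA with a phospho-Tau-specific antibody.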

Where only a bound is given, the exact number is not on record here.

T2 sequence (P49759 129-484 limits assumed): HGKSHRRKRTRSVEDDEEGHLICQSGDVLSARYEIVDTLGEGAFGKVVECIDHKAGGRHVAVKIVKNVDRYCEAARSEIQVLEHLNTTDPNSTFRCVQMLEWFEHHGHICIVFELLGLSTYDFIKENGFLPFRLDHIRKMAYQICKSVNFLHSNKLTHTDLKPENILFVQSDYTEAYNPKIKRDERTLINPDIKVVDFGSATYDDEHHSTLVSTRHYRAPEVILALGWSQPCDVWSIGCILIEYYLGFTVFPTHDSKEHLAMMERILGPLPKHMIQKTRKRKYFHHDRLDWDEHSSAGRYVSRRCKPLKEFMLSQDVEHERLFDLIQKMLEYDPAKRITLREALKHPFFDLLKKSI
Sequence of LRRK2 (G2019S) (Q5S007 970-2527 G2019S limits assumed): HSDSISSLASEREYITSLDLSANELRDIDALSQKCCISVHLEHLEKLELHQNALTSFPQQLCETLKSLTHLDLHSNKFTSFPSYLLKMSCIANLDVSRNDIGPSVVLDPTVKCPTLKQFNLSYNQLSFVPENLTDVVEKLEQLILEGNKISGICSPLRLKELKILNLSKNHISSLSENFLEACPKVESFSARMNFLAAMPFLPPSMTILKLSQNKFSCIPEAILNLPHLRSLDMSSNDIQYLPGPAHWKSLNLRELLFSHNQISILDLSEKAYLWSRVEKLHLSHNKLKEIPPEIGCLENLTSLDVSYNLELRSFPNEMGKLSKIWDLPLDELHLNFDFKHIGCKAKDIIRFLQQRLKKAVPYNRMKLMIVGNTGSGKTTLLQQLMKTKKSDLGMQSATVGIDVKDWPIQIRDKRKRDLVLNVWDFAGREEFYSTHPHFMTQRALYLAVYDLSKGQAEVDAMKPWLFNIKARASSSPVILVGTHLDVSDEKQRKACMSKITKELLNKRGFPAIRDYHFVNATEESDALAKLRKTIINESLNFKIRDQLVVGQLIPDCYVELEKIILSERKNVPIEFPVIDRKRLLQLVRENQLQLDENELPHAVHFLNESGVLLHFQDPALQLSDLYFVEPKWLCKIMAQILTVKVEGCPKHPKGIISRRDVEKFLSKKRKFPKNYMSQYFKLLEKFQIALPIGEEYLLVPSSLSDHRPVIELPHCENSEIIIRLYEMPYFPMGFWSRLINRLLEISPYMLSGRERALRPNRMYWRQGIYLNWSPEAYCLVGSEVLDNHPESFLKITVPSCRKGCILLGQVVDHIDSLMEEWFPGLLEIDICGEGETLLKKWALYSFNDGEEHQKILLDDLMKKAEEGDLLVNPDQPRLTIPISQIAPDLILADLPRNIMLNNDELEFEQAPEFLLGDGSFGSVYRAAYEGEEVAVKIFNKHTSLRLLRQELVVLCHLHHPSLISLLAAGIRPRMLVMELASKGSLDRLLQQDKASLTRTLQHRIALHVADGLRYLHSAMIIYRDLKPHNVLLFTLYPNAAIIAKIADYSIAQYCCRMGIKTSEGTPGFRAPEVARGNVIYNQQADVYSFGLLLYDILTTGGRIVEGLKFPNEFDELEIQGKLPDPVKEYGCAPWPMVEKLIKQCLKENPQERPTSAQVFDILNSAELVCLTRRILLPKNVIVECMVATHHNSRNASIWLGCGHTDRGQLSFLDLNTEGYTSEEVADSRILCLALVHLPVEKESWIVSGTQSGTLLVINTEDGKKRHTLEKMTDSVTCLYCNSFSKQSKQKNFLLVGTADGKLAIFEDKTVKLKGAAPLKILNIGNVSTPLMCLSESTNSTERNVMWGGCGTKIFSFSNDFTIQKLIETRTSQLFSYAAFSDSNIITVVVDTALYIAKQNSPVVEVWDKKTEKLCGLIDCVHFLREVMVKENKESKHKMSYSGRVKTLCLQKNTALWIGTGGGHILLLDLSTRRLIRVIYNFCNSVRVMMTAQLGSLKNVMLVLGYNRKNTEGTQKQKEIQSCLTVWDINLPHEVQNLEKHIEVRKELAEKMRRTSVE
Sequence of LRRK2 (Q5S007 970-2527 limits assumed): as the sequence (Q5S007 970-2527 G2019S limits assumed) above, with S1050G counted along it

`CS(=O)(=O)CCNc1cc(Nc2ccc(C(=O)N3CCOCC3)c3c2OCCO3)nc2[nH]cc(C(F)(F)F)c12` [Example 157, (8-((4-((2-(methylsulfonyl)ethyl)amino)-3-(trifluoromethyl)-1H-pyrrolo[2,3-b]pyridin-6-yl)amino)-2,3-dihydrobenzo [b] [1,4]dioxin-5-yl)(morpholino) methanone]: the IC50 (against LRRK2 (G2019S); in [1]; against LRRK2; against human GST-CLK1 (129-end)) was less than 100 nM throughout. Moreover, the inhibition at 0.5 µM in the assay on TNF-α was 31%; in the assay with IL-6, 29.1%.
With `CCNc1cc(Nc2ccc(C(=O)N3CCN(CC4CC4)CC3)c3c2OCC3)nc2[nH]cc(C(F)(F)F)c12` [Example 257, (4-(cyclopropylmethyl)piperazin-1-yl)(7-((4-(ethylamino)-3-(trifluoromethyl)-1H-pyrrolo[2,3-b]pyridin-6-yl)amino)-2,3-dihydrobenzofuran-4-yl)methanone], the IC50 (against LRRK2 (G2019S); in assay [1]; against human GST-CLK1 (129-end)) was less than 100 nM throughout. Moreover, the inhibition at 0.5 µM in the assay with TNF-α is 7.88%; in the assay with IL-6, 44%.
Regarding `CCNc1cc(Nc2ccc(S(=O)(=O)N3CCC(N4CCOCC4)CC3)cc2OC)nc2[nH]cc(C(F)(F)F)c12` [Example 185, N^4-ethyl-N^6-(2-methoxy-4-((4-morpholinopiperidin-1-yl)sulfonyl)phenyl)-3-(trifluoromethyl)-1H-pyrrolo[2,3-b]pyridine-4,6-diamine], the 50% growth inhibitory concentration (GI50) (commonly the concentration at which growth is held to half of that of the control) with SHP-77 was less than 50 nM; with MDA-MB-231 cell line, 51 to 100 nM. Moreover, the IC50 – broadly, the concentration that gives 50% inhibition – was less than 100 nM on LRRK2 (G2019S), 101 to 300 nM in assay [1], less than 100 nM on LRRK2 and 101 to 300 nM against human GST-CLK1 (129-end). In the assay on human DYRK1A and Tau, the inhibition at 0.25 µM was found to be 22.9%. Further, the inhibition at 0.5 µM in the assay on human DYRK1A and Tau turned out to be 37.7%. The inhibition at 1 µM in the assay with human DYRK1A and Tau was found to be 56.2%.
Take `CCNc1cc(Nc2ccc(C(=O)N3CCN(CCO)CC3)c3c2OCC3)nc2[nH]cc(C(F)(F)F)c12` [Example 253, (7-((4-(ethylamino)-3-(trifluoromethyl)-1H-pyrrolo[2,3-b]pyridin-6-yl)amino)-2,3-dihydrobenzofuran-4-yl)(4-(2-hydroxyethyl)piperazin-1-yl)methanone]: the IC50 (at LRRK2 (G2019S); in assay [1]; on human GST-CLK1 (129-end)) was less than 100 nM in each case. The inhibition at 0.5 µM with TNF-α worked out at 9.83%; in the assay with IL-6, 49.2%.
Take `CCNc1cc(Nc2ccc(C(=O)N3CCC(N4CCN(C5CC5)CC4)CC3)c3c2OCC3)nc2[nH]cc(C(F)(F)F)c12` [Example 264, (4-(4-cyclopropylpiperazin-1-yl)piperidin-1-yl)(7-((4-(ethylamino)-3-(trifluoromethyl)-1H-pyrrolo[2,3-b]pyridin-6-yl)amino)-2,3-dihydrobenzofuran-4-yl)methanone]: the IC50 (at LRRK2 (G2019S); in assay [1]; against human GST-CLK1 (129-end)) was less than 100 nM throughout. For the same compound, the results for the inhibition at 0.5 µM in the assay on TNF-α and with IL-6 were 11.2% and 45.5%, respectively.
In the case of `CCNc1cc(Nc2ccc(C(=O)N3CCC(N4CCN(C)CC4)CC3)c3c2OCC3)nc2[nH]cc(C(F)(F)F)c12` [Example 247, (7-((4-(ethylamino)-3-(trifluoromethyl)-1H-pyrrolo[2,3-b]pyridin-6-yl)amino)-2,3-dihydrobenzofuran-4-yl)(4-(4-methylpiperazin-1-yl)piperidin-1-yl)methanone], the IC50 (at LRRK2 (G2019S); in assay [1]; against human GST-CLK1 (129-end)) was less than 100 nM in each case. Further, the inhibition at 0.5 µM worked out at 15.5% in the assay on TNF-α; 76.8% in the assay on human DYRK1A and Tau; 31.9% in the assay with IL-6. In addition, the inhibition at 0.25 µM with human DYRK1A and Tau stood at 52.3%. The inhibition at 1 µM in the assay with human DYRK1A and Tau turned out to be 104%.
In the case of `CNc1cc(Nc2ccc(C(=O)N3CCC(N4CCOCC4)CC3)c3c2OCO3)nc2[nH]cc(C(F)(F)F)c12` [Example 235, (7-((4-(methylamino)-3-(trifluoromethyl)-1H-pyrrolo[2,3-b]pyridin-6-yl)amino)benzo[d][1,3]dioxol-4-yl)(4-morpholinopiperidin-1-yl)methanone], the inhibition at 0.5 µM in the assay with TNF-α was 36.3%; in the assay with IL-6, 22.9%. Also, the IC50 (in assay [1]; at LRRK2; against human GST-CLK1 (129-end)) was less than 100 nM each time.
Consider `CCNc1cc(Nc2ccc(C(=O)N3CCC(N(C)C)CC3)c3c2OCC3)nc2[nH]cc(C(F)(F)F)c12` [Example 249, (4-(dimethylamino)piperidin-1-yl)(7-((4-(ethylamino)-3-(trifluoromethyl)-1H-pyrrolo[2,3-b]pyridin-6-yl)amino)-2,3-dihydrobenzofuran-4-yl)methanone], for which the IC50 (against LRRK2 (G2019S); in [1]; against human GST-CLK1 (129-end)) was less than 100 nM throughout. Besides, the inhibition at 0.5 µM was found to be 10.1% in the assay on TNF-α; 76.9% in the assay with human DYRK1A and Tau; 60.3% in the assay with IL-6. The inhibition at 0.25 µM in the assay on human DYRK1A and Tau came to 62.4%. Also, the inhibition at 1 µM with human DYRK1A and Tau was found to be 82.9%.
For the compound `CNc1cc(Nc2ccc(C(=O)N3CCOCC3)c3c2OCO3)nc2[nH]cc(C(F)(F)F)c12` [Example 38, (7-((4-(methylamino)-3-(trifluoromethyl)-1H-pyrrolo[2,3-b]pyridin-6-yl)amino)benzo [d] [1,3]dioxol-4-yl)(morpholino) methanone], the 50% inhibitory concentration (IC50) is less than 100 nM at LRRK2 (G2019S), less than 100 nM in assay [1], 101 to 300 nM at LRRK2 and less than 100 nM at human GST-CLK1 (129-end). The inhibition at 0.5 µM in the assay on TNF-α was 32.8%; in the assay on IL-6, 36.1%.
In the case of `COCCNc1cc(Nc2ccc(C(=O)N3CCOCC3)c3c2OCC3)nc2[nH]cc(C(F)(F)F)c12` [Example 54, (7-((4-((2-methoxyethyl)amino)-3-(trifluoromethyl)-1H-pyrrolo[2,3-b]pyridin-6-yl)amino)-2,3-dihydrobenzofuran-4-yl)(morpholino) methanone], the concentration for half-maximal inhibition (IC50) (against LRRK2 (G2019S); in [1]; at LRRK2; at human GST-CLK1 (129-end)) was less than 100 nM in each case. Further, the inhibition at 0.5 µM in the assay with IL-6 came out at 46.9%.
With `CCNc1cc(Nc2ccc(C(=O)N3CC[C@@H](N4CCOCC4)C3)c3c2OCC3)nc2[nH]cc(C(F)(F)F)c12` [Example 213, (R)-(7-((4-(ethylamino)-3-(trifluoromethyl)-1H-pyrrolo[2,3-b]pyridin-6-yl)amino)-2,3-dihydrobenzofuran-4-yl)(3-morpholinopyrrolidin-1-yl)methanone], the concentration for half-maximal inhibition (IC50) was 101 to 300 nM on LRRK2 (G2019S), 101 to 300 nM in assay [1], 101 to 300 nM on LRRK2 and less than 100 nM against human GST-CLK1 (129-end). The inhibition at 0.5 µM in the assay on TNF-α is 2.6%; with IL-6, 3.9%.
